The source of these data is patent US8673908B2, “Kynurenine production inhibitor” (Kyowa Hakko Kirin Co., Ltd., priority 2008, dated 2014).

SMILES strings stand for the structures.

The IC50 is the concentration needed to halve the response being measured.

The subject of this assay is kynurenine production in IFN-γ-treated KATO-III cells. Nature of the assay: Inhibitory activity on kynurenine production (Test Example 1). The format is cell-based. The following applies: Homo sapiens, IFN-γ treatment, culture for 96 hours, read-out: IC50 value, inhibition of kynurenine production. Put shortly:
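Read-out is absorbance at 480 nm of medium treated with trichloroacetic acid, then p-dimethylaminobenzaldehyde, to quantify kynurenine. DMSO-only wells with and without IFN-γ serve as references. Cells were KATO-III, 2,000 per well, 96 h at 37 °C/5% CO2 with compound (DMSO ≤0.1%) and IFN-γ at 31.25 ng/mL in the added suspension.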
Take `O=S(=O)(Nc1nc2ccccc2nc1OC(c1cccnc1)C(F)(F)F)c1ccccc1` (stereo not shown) [Compound 137, N-{3-[2,2,2-trifluoro-1-(pyridin-3-yl)ethoxy]quinoxalin-2-yl}benzenesulfonamide]: the IC50 was below 1 µM. The figure for `O=S(=O)(Nc1nc2ccccc2nc1OCc1cccnc1)c1cccc(Cl)c1Cl` [Compound 6, 2,3-dichloro-N-{3-[(pyridin-3-yl)methoxy]quinoxalin-2-yl}-benzenesulfonamide] is 1 to 10 µM; for `CCCS(=O)(=O)Nc1nc2ccccc2nc1O[C@H](c1ccc(Cl)nc1)C(F)(F)F` [Compound 348, (R)—N-{3-[2,2,2-trifluoro-1-(6-chloropyridin-3-yl)ethoxy]-quinoxalin-2-yl}propane-1-sulfonamide] it is below 1 µM; for `O=S(=O)(Nc1nc2ccccc2nc1OC(c1cccnc1)C(F)(F)F)C1CC1` (stereo not shown) [Compound 150, N-{3-[2,2,2-trifluoro-1-(pyridin-3-yl)ethoxy]quinoxalin-2-yl}cyclopropanesulfonamide] it is below 1 µM. As for `CCCS(=O)(=O)Nc1nc2ccccc2nc1O[C@H](c1ccc(C)nc1)C(F)(F)F` [Compound 319, (R)—N-{3-[2,2,2-trifluoro-1-(6-methylpyridin-3-yl)ethoxy]-quinoxalin-2-yl}propane-1-sulfonamide], the figure is below 1 µM; as for `O=S(=O)(Nc1nc2ccccc2nc1OC(c1cnc(Br)s1)C(F)(F)F)c1ccccc1Cl` (stereo not shown) [Compound 126, 2-chloro-N-{3-[2,2,2-trifluoro-1-(2-bromothiazol-5-yl)-ethoxy]quinoxalin-2-yl}benzenesulfonamide], below 1 µM. The figure for `O=S(=O)(Nc1nc2ccccc2nc1OC(c1cccnc1)C(F)(F)F)c1cc2ccccc2s1` (stereo not shown) [Compound 164, N-{3-[2,2,2-trifluoro-1-(pyridin-3-yl)ethoxy]quinoxalin-2-yl}benzo[b]thiophene-2-sulfonamide] is below 1 µM; for `O=S(=O)(Cc1ccccc1Cl)Nc1nc2ccccc2nc1OC(c1cccnc1)C(F)(F)F` (stereo not shown) [Compound 173, 1-(2-chlorophenyl)-N-{3-[2,2,2-trifluoro-1-(pyridin-3-yl)-ethoxy]quinoxalin-2-yl}methanesulfonamide] it is below 1 µM; for `O=S(=O)(Nc1nc2ccccc2nc1OC(C1CCCCC1)C(F)(F)F)c1cccc(Cl)c1Cl` (stereo not shown) [Compound 102, 2,3-dichloro-N-[3-(1-cyclohexyl-2,2,2-trifluoroethoxy)-quinoxalin-2-yl]benzenesulfonamide] it is below 1 µM. For the compound `CCCS(=O)(=O)Nc1nc2ccccc2nc1OC(C(F)(F)F)C1(C)CCN(S(C)(=O)=O)CC1` (stereo not shown) [Compound 357, N-{3-[2,2,2-trifluoro-1-(1-methanesulfonyl-4-methylpiperidin-4-yl)ethoxy]quinoxalin-2-yl}propane-1-sulfonamide], the IC50 was below 1 µM. In the case of `O=S(=O)(Nc1nc2ccccc2nc1OC(c1cncs1)C(F)(F)F)c1ccccc1Cl` (stereo not shown) [Compound 113, 2-chloro-N-{3-[2,2,2-trifluoro-1-(thiazol-5-yl)ethoxy]-quinoxalin-2-yl}benzenesulfonamide], the concentration for half-maximal inhibition (IC50) was below 1 µM. As for `O=S(=O)(CC1CC1)Nc1nc2ccccc2nc1OC(c1ccc(Cl)nc1)C(F)(F)F` (stereo not shown) [Compound 308, 1-cyclopropyl-N-{3-[1-(6-chloropyridin-3-yl)-2,2,2-trifluoroethoxy]quinoxalin-2-yl}methanesulfonamide], the IC50 was below 1 µM. For the compound `CCCS(=O)(=O)Nc1nc2ccccc2nc1OC(C1CCN(S(C)(=O)=O)CC1)C(F)(F)F` (stereo not shown) [Compound 336, N-{3-[2,2,2-trifluoro-1-(1-methanesulfonylpiperidin-4-yl)-ethoxy]quinoxalin-2-yl}propane-1-sulfonamide], the IC50 was below 1 µM. The figure for `CCCS(=O)(=O)Nc1nc2ccccc2nc1OC(c1cncc(C)c1)C(F)(F)F` (stereo not shown) [Compound 331, N-{3-[2,2,2-trifluoro-1-(5-methylpyridin-3-yl)ethoxy]-quinoxalin-2-yl}propane-1-sulfonamide] is below 1 µM; for `CCCS(=O)(=O)Nc1nc2ccccc2nc1O[C@@H](c1cccnc1)C(F)(F)F` [Compound 313, (S)—N-{3-[2,2,2-trifluoro-1-(pyridin-3-yl)ethoxy]-quinoxalin-2-yl}propane-1-sulfonamide] it is 1 to 10 µM. The figure for `Cc1noc(C)c1S(=O)(=O)Nc1nc2ccccc2nc1OC(c1cnc(Cl)s1)C(F)(F)F` (stereo not shown) [Compound 198, N-{3-[1-(2-chlorothiazol-5-yl)-2,2,2-trifluoroethoxy]-quinoxalin-2-yl}-3,5-dimethylisoxazole-4-sulfonamide] is below 1 µM. The figure for `O=S(=O)(Nc1nc2ccccc2nc1OC(c1ccc(Br)nc1)C(F)(F)F)c1ccccc1Cl` (stereo not shown) [Compound 86, 2-chloro-N-{3-[2,2,2-trifluoro-1-(6-bromopyridin-3-yl)-ethoxy]quinoxalin-2-yl}benzenesulfonamide] is below 1 µM; for `CCCS(=O)(=O)Nc1nc2ccccc2nc1OC(c1ccc(C#N)cc1)C(F)(F)F` (stereo not shown) [Compound 202, N-{3-[1-(4-cyanophenyl)-2,2,2-trifluoroethoxy]quinoxalin-2-yl}propane-1-sulfonamide] it is below 1 µM.

Take `CCCS(=O)(=O)Nc1nc2ccccc2nc1OC(c1cnc(C)s1)C(F)(F)F` (stereo not shown) [Compound 315, N-{3-[2,2,2-trifluoro-1-(2-methylthiazol-5-yl)ethoxy]-quinoxalin-2-yl}propane-1-sulfonamide]: the IC50 is below 1 µM. For the compound `Cc1nn(C)c(Cl)c1S(=O)(=O)Nc1nc2ccccc2nc1OC(c1cncs1)C(F)(F)F` (stereo not shown) [Compound 186, 5-chloro-1,3-dimethyl-N-{3-[2,2,2-trifluoro-1-(thiazol-5-yl)ethoxy]quinoxalin-2-yl}-1H-pyrazole-4-sulfonamide], the IC50 is below 1 µM. Turning to `CCCS(=O)(=O)Nc1nc2ccccc2nc1O[C@H](C1CCOCC1)C(F)(F)F` [Compound 347, (R)—N-{3-[2,2,2-trifluoro-1-(tetrahydro-2H-pyran-4-yl)-ethoxy]quinoxalin-2-yl}propane-1-sulfonamide], the IC50 was below 1 µM.

With `Cc1ncc(C(Oc2nc3ccccc3nc2NS(=O)(=O)CC2CC2)C(F)(F)F)s1` (stereo not shown) [Compound 306, 1-cyclopropyl-N-{3-[2,2,2-trifluoro-1-(2-methylthiazol-5-yl)ethoxy]quinoxalin-2-yl}methanesulfonamide], the IC50 is below 1 µM. With `Cc1ncc(C(Oc2nc3ccccc3nc2NS(=O)(=O)c2ccccc2Cl)C(F)(F)F)n1C` (stereo not shown) [Compound 115, 2-chloro-N-{3-[2,2,2-trifluoro-1-(1,2-dimethyl-1H-imidazol-5-yl)ethoxy]quinoxalin-2-yl}benzenesulfonamide], the IC50 is below 1 µM. The figure for `Cc1noc(C)c1S(=O)(=O)Nc1nc2ccccc2nc1OC(c1cncn1C)C(F)(F)F` (stereo not shown) [Compound 171, 3,5-dimethyl-N-{3-[2,2,2-trifluoro-1-(1-methyl-1H-imidazol-5-yl)ethoxy]quinoxalin-2-yl}isoxazole-4-sulfonamide] is below 1 µM; for `Cc1nc(C)c(C(Oc2nc3ccccc3nc2NS(=O)(=O)c2ccccc2Cl)C(F)(F)F)s1` (stereo not shown) [Compound 106, 2-chloro-N-{3-[2,2,2-trifluoro-1-(2,4-dimethylthiazol-5-yl)ethoxy]quinoxalin-2-yl}benzenesulfonamide] it is below 1 µM.

Consider `CCCS(=O)(=O)Nc1nc2ccccc2nc1O[C@H](c1cccnc1)C(F)(F)F` [Compound 312, (R)—N-{3-[2,2,2-trifluoro-1-(pyridin-3-yl)ethoxy]-quinoxalin-2-yl}propane-1-sulfonamide], for which the IC50 is below 1 µM.

Take `O=S(=O)(Nc1nc2ccccc2nc1OC(c1cnc(-c2ccccc2)s1)C(F)(F)F)c1ccccc1Cl` (stereo not shown) [Compound 134, 2-chloro-N-{3-[2,2,2-trifluoro-1-(2-phenylthiazol-5-yl)-ethoxy]quinoxalin-2-yl}benzenesulfonamide]: the IC50 was below 1 µM. `CCNS(=O)(=O)Nc1nc2ccccc2nc1OC(c1cccnc1)C(F)(F)F` (stereo not shown) [Compound 195, N-ethyl-N′-{3-[2,2,2-trifluoro-1-(pyridin-3-yl)ethoxy]-quinoxalin-2-yl}sulfuric diamide]: the IC50 was below 1 µM. For the compound `CCCS(=O)(=O)Nc1nc2ccccc2nc1O[C@@H](c1cnc(C)s1)C(F)(F)F` [Compound 343, (R)—N-{3-[2,2,2-trifluoro-1-(2-methylthiazol-5-yl)ethoxy]-quinoxalin-2-yl}propane-1-sulfonamide], the IC50 fell in the range of 1 to 10 µM.

As for `CC(CCOc1nc2ccccc2nc1NS(=O)(=O)c1ccccc1Cl)c1cccnc1` (stereo not shown) [Compound 177, 2-chloro-N-{3-[3-(pyridin-3-yl)butoxy]quinoxalin-2-yl}-benzenesulfonamide], the IC50 is below 1 µM.

For `O=S(=O)(Nc1nc2ccccc2nc1OC(c1ccc(CO)cc1)C(F)(F)F)c1ccccc1Cl` (stereo not shown) [Compound 60, 2-chloro-N-{3-[2,2,2-trifluoro-1-(4-hydroxymethylphenyl)-ethoxy]quinoxalin-2-yl}benzenesulfonamide], the IC50 is below 1 µM. For the compound `CCCNS(=O)(=O)Nc1nc2ccccc2nc1OC(c1ccc(C)[n+]([O-])c1)C(F)(F)F` (stereo not shown) [Compound 284, 2-methyl-5-{2,2,2-trifluoro-1-[3-(N-propylsulfamoylamino)-quinoxalin-2-yloxy]ethyl}pyridine 1-oxide], the concentration for half-maximal inhibition (IC50) is below 1 µM. As for `CCCNS(=O)(=O)Nc1nc2ccccc2nc1O[C@H](c1cccnc1)C(F)(F)F` [Compound 314, (R)—N-propyl-N′-{3-[2,2,2-trifluoro-1-(pyridin-3-yl)-ethoxy]quinoxalin-2-yl}sulfuric diamide], the figure is below 1 µM; as for `O=S(=O)(Nc1nc2ccccc2nc1OC(c1cncs1)C(F)(F)F)NC1CC1` (stereo not shown) [Compound 286, N-{3-[2,2,2-trifluoro-1-(thiazol-5-yl)ethoxy]quinoxalin-2-yl}-N′-cyclopropyl-sulfuric diamide], below 1 µM.
